Reference: patent US11076594B2, “Pyrazolone compound or salt thereof, preparation method therefor, herbicide composition and use thereof” (QINGDAO KINGAGROOT CHEMICAL COMPOUNDS CO., LTD., priority 2015, dated 2021)

Columns and labels:
Format in all cases: in vivo
corn = assay: post-emergence stage experiment, crop (Table 1); details: post-emergence spray at 4-5 leaf stage, 250 g/ha active ingredient with 450 kg/ha water, rated after 3 weeks in greenhouse
In short: (§1)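 Read-out is growth control rate based on fresh weight, determined 3 weeks after treatment. Plants raised from seed in potted soil (0.5-2 cm cover) in greenhouse were sprayed 2-3 weeks post-sowing at 4-5 leaves with acetone/Tween 80 aqueous compound solutions.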

wheat = assay: post-emergence stage experiment, crop (Table 1); details: post-emergence spray at 4-5 leaf stage, 250 g/ha active ingredient with 450 kg/ha water, rated after 3 weeks in greenhouse
In short: as §1

rice (japonica rice) = assay: transplanted rice safety evaluation; details: 125 g/ha ai; treated 5 days after transplantation; 21 days after treatment
Protocol: The activity level standard of harmful plant destruction (i.e. growth control rate) is as follows: In addition, the rice field soil that loaded into the 1/1,000,000 ha pot was leveled to keep water storage at 3-4 cm depth. The 3 leaf stage rice (japonica rice) was transplanted at 3 cm of transplanting depth the next day. The compound of the present invention was treated by the same way after 5 days of transplantation. The fertility condition of echinochloa, scirpus juncoides, bidens tripartite and sagittaria trifolia 14 days after the treatment of the compound of the invention and the fertility condition of rice 21 days after the treatment of the compound of the invention respectively with the naked eye.

rice = assay: post-emergence stage experiment, crop (Table 1); details: post-emergence spray at 4-5 leaf stage, 250 g/ha active ingredient with 450 kg/ha water, rated after 3 weeks in greenhouse
In short: as §1

Indian mallow = assay: weed control effect in post-emergence stage (Table 1); design: key: Level 10: completely dead; Level 9: above 95% growth control rate; Level 8: above 90% growth control rate; Level 7: above 80% growth control rate; Level 6: above 70% growth control rate; Level 5: above 60% growth control rate; Level 4: above 50% growth control rate; Level 3: above 20% growth control rate; Level 2: 5%-20% growth control rate; Level 1: below 5% growth control rate; details: post-emergence spray at 4-5 leaf stage, 250 g/ha active ingredient with 450 kg/ha water, rated after 3 weeks in greenhouse
In short: as §1

foxtail = assay: as above; design: key: Level 10: completely dead; Level 9: above 95% growth control rate; Level 8: above 90% growth control rate; Level 7: above 80% growth control rate; Level 6: above 70% growth control rate; Level 5: above 60% growth control rate; Level 4: above 50% growth control rate; Level 3: above 20% growth control rate; Level 2: 5%-20% growth control rate; Level 1: below 5% growth control rate; details: post-emergence spray at 4-5 leaf stage, 250 g/ha active ingredient with 450 kg/ha water, rated after 3 weeks in greenhouse
In short: as §1

crab grass = assay: as above; design: key: Level 10: completely dead; Level 9: above 95% growth control rate; Level 8: above 90% growth control rate; Level 7: above 80% growth control rate; Level 6: above 70% growth control rate; Level 5: above 60% growth control rate; Level 4: above 50% growth control rate; Level 3: above 20% growth control rate; Level 2: 5%-20% growth control rate; Level 1: below 5% growth control rate; details: post-emergence spray at 4-5 leaf stage, 250 g/ha active ingredient with 450 kg/ha water, rated after 3 weeks in greenhouse
In short: as §1

rorippa indica = assay: as above; design: key: Level 10: completely dead; Level 9: above 95% growth control rate; Level 8: above 90% growth control rate; Level 7: above 80% growth control rate; Level 6: above 70% growth control rate; Level 5: above 60% growth control rate; Level 4: above 50% growth control rate; Level 3: above 20% growth control rate; Level 2: 5%-20% growth control rate; Level 1: below 5% growth control rate; details: post-emergence spray at 4-5 leaf stage, 250 g/ha active ingredient with 450 kg/ha water, rated after 3 weeks in greenhouse
In short: as §1

bidens bipinnata = assay: as above; design: key: Level 10: completely dead; Level 9: above 95% growth control rate; Level 8: above 90% growth control rate; Level 7: above 80% growth control rate; Level 6: above 70% growth control rate; Level 5: above 60% growth control rate; Level 4: above 50% growth control rate; Level 3: above 20% growth control rate; Level 2: 5%-20% growth control rate; Level 1: below 5% growth control rate; details: post-emergence spray at 4-5 leaf stage, 250 g/ha active ingredient with 450 kg/ha water, rated after 3 weeks in greenhouse
In short: as §1

echinochloa [1] = assay: as above; design: key: Level 10: completely dead; Level 9: above 95% growth control rate; Level 8: above 90% growth control rate; Level 7: above 80% growth control rate; Level 6: above 70% growth control rate; Level 5: above 60% growth control rate; Level 4: above 50% growth control rate; Level 3: above 20% growth control rate; Level 2: 5%-20% growth control rate; Level 1: below 5% growth control rate; details: post-emergence spray at 4-5 leaf stage, 250 g/ha active ingredient with 450 kg/ha water, rated after 3 weeks in greenhouse
In short: as §1

bidens tripartite = assay: weed control effect evaluation in rice field; design: key: Level 10: completely dead; Level 9: above 95% growth control rate; Level 8: above 90% growth control rate; Level 7: above 80% growth control rate; Level 6: above 70% growth control rate; Level 5: above 60% growth control rate; Level 4: above 50% growth control rate; Level 3: above 20% growth control rate; Level 2: 5%-20% growth control rate; Level 1: below 5% growth control rate; details: 125 g/ha ai; rice field pot; 14 days after treatment; resistant to pyrazosulfuron-ethyl
Description: (§2) The activity level standard of harmful plant destruction (i.e. growth control rate) is as follows: Rice field soil was loaded into a 1/1,000,000 ha pot. The seeds of echinochloa, scirpus juncoides, bidens tripartite and sagittaria trifolia were sowed and gently covered with soil, then left to stand still in greenhouse in the state of 0.5-1 cm of water storage. The tuber of sagittaria trifolia was planted in the next day or 2 days later. It was kept at 3-4 cm of water storage thereafter. The weeds were treated by dripping the WP or SC water diluents prepared according to the common preparation method of the compounds of the present invention with pipette homogeneously to achieve specified effective amount when echinochloa, scirpus juncoides and bidens tripartite reached 0.5 leaf stage and sagittaria trifolia reached the time point of primary leaf stage. The fertility condition of echinochloa, scirpus juncoides, bidens tripartite and sagittaria trifolia 14 days after the treatment of the compound of the invention and the fertility condition of rice 21 days after the treatment of the compound of the invention respectively with the naked eye.

scirpus juncoides = assay: weed control effect evaluation in rice field; design: key: Level 10: completely dead; Level 9: above 95% growth control rate; Level 8: above 90% growth control rate; Level 7: above 80% growth control rate; Level 6: above 70% growth control rate; Level 5: above 60% growth control rate; Level 4: above 50% growth control rate; Level 3: above 20% growth control rate; Level 2: 5%-20% growth control rate; Level 1: below 5% growth control rate; details: 125 g/ha ai; rice field pot; 14 days after treatment; resistant to pyrazosulfuron-ethyl
Description: as §2

sagittaria trifolia = assay: weed control effect evaluation in rice field; design: key: Level 10: completely dead; Level 9: above 95% growth control rate; Level 8: above 90% growth control rate; Level 7: above 80% growth control rate; Level 6: above 70% growth control rate; Level 5: above 60% growth control rate; Level 4: above 50% growth control rate; Level 3: above 20% growth control rate; Level 2: 5%-20% growth control rate; Level 1: below 5% growth control rate; details: 125 g/ha ai; rice field pot; 14 days after treatment; resistant to pyrazosulfuron-ethyl
Description: as §2

echinochloa [2] = assay: weed control effect evaluation in rice field; design: key: Level 10: completely dead; Level 9: above 95% growth control rate; Level 8: above 90% growth control rate; Level 7: above 80% growth control rate; Level 6: above 70% growth control rate; Level 5: above 60% growth control rate; Level 4: above 50% growth control rate; Level 3: above 20% growth control rate; Level 2: 5%-20% growth control rate; Level 1: below 5% growth control rate; details: 125 g/ha ai; rice field pot; 14 days after treatment; resistant to pyrazosulfuron-ethyl
Description: as §2

In the case of `CCn1nc(C)c(C(=O)c2ccc(C(F)(F)F)c(-n3cccn3)c2Cl)c1O` [Compound 128], the “effect on crop, Corn (level)” value (corn) is reported as 0, the “effect on crop, Wheat (level)” value (wheat) is reported as 0 and the “Rice (activity level, transplanted rice safety)” value (rice (japonica rice)) is reported as 1 (Level 1: below 5% growth control rate). For the same molecule, the “effect on crop, Rice (level)” value (rice) was 5 (Level 5: above 60% growth control rate), the “weed control effect, Indian mallow (level)” value (Indian mallow) was 3 (Level 3: above 20% growth control rate) and the “weed control effect, Green foxtail (level)” value (foxtail) was 10. The “weed control effect, Crab grass (level)” value (crab grass) was 1 (Level 1: below 5% growth control rate), the “weed control effect, Rorippa indica (level)” value (rorippa indica) was 7 (Level 7: above 80% growth control rate) and the “weed control effect, Bidens bipinnata (level)” value (bidens bipinnata) was 6 (Level 6: above 70% growth control rate). The “weed control effect, Echinochloa (level)” value (echinochloa [1]) was 10, the “Bidens tripartite weed control effect (activity level)” value (bidens tripartite) was 6 (Level 6: above 70% growth control rate) and the “Scirpus juncoides weed control effect (activity level)” value (scirpus juncoides) was 10. For the same molecule, the “Sagittaria trifolia weed control effect (activity level)” value (sagittaria trifolia) was 8 (Level 8: above 90% growth control rate) and the “Echinochloa weed control effect (activity level)” value (echinochloa [2]) was 10.
